From patent US9744137B2, “Topiramate compositions and methods of enhancing its bioavailability” (Supernus Pharmaceuticals, Inc., priority 2006, dated 2017)
Where two headings read alike, the source gives them in different places.

What was measured:
[1] = Degradation of topiramate in 0.1 N HCl (simulated gastric fluid) at 37° C., HPLC-ELSD; type: physicochemical; conditions: drug substance, 24 hours of incubation in 0.1 N HCl at 37° C.
Procedure: Degradation of topiramate was detected during a dissolution profile of Topamax® tablets in simulated gastric fluid (i.e., 0.1 N HCl). […] Topiramate analysis was carried out using HPLC equipped with Evaporative Laser Light Scattering Detector at 92° C. Separation was achieved using a C-8 reversed-phase column under isocratic conditions of 50% acetonitrile in water. The samples were kept at 4° C. throughout the analysis. Prior to sample injection, the system was equilibrated for 1 hr and subjected to a system suitability test. Linearity was evaluated by linearity curve with power fit. The samples were injected in duplicate and degradation was calculated using the sample area linearity slope and power.

[2] = cited from earlier work
patients with epilepsy = conditions: cited from earlier work; for time leading up to the first seizure (median seizure-free duration): monotherapy
[3] = cited from earlier work; remark: listed apart in the source

In the case of `CC1(C)OC2[C@@H](CO[C@@]3(COS(N)(=O)=O)OC(C)(C)O[C@@H]23)O1` (stereo partly drawn) [topiramate, 2,3:4,5-Di-O-isopropylidene-beta-D-fructopyranose sulfamate], the topiramate degraded [1] is given as “approximately 70%”, the “effect of food on pharmacokinetics” value ([2]; in vivo) is given as “not significantly affected by food” and the “mean elimination half life” value ([2]; in vivo) is given as “about 21 hours”. For the same compound, the “time to peak plasma drug concentrations” value ([2]; oral administration of an immediate release dosage form) was “approximately 2 hours”, the plasma topiramate concentration (patients with epilepsy; 9 patients who became seizure-free) was 5.3 ± 2.6 µg/mL and the “time leading up to the first seizure (median seizure-free duration)” value (patients with epilepsy; 215 patients with partial epilepsy, serum concentrations <1.8 mg/L) was 84 days. The “time leading up to the first seizure (median seizure-free duration)” value (patients with epilepsy; serum concentrations above 9.9 mg/L) was 451 days, the “time leading up to the first seizure (median seizure-free duration)” value (patients with epilepsy; serum concentrations between 1.8 and 9.9 mg/L) was 194 days and the “mean topiramate plasma concentration” value (patients with epilepsy; positive responders) was “around 7 μg/mL”. The “mean topiramate plasma concentration” value (patients with epilepsy; seizure-free patients) was about 9 µg/mL, the “plasma levels at steady state” value ([3]; migraine prophylaxis) was 1.2 to 4.4 µg/mL and the mean serum level ([3]; pediatric migraine study, daily dose 84.0+/−38.6 mg/day) was 2.8 ± 1.6 µg/mL.
